*1 amine or outer side, *2 acyl side, *3 side chain or, on linkers, in order; H or OH if unused. Where a SMILES comes first, the peptide text is derived from it. Side-chain parts run from the residue outwards. The star is where a group is joined. C18 diacid = O=C(O)CCCCCCCCCCCCCCCCC(=O)*; γGlu = O=C(O)[C@H](CCC(=O)[*:2])N[*:1]; Isovaleryl = CC(C)CC(=O)*; AEEA = NCCOCCOCC(=O)O
target: T1, Human Neuropeptide Y2 Receptor (Homo sapiens, UniProt P49146); experiment: Radioligand binding competition assay (RLB); details: Table 3; human 125I-PYY (1-36) 0.02 nM, Y2 receptor membranes; read-out: Ki
T1 construct: purchased CHEMICON HTS066M
T1 sequence (P49146 1-381): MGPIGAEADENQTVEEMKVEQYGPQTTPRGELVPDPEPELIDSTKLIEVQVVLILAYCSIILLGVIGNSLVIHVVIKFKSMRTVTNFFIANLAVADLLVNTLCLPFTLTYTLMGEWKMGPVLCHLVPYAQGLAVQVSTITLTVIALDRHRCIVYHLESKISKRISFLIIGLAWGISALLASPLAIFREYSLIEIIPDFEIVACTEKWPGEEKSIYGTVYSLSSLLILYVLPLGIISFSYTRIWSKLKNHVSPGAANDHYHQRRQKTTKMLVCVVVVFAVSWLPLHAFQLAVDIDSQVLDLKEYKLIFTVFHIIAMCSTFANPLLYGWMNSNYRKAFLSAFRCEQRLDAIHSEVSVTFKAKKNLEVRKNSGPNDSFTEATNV
Method in brief: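 Peptide dilutions made in pH 7.4 HEPES assay buffer with 0.2% ovalbumin; human Y2 receptor membranes added at 0.5 μg protein/well; plates shaken 2 h at room temperature; reaction stopped by vacuum filtration onto PEI-treated GF/C filters with ice-cold high-salt washes; radioactivity counted by scintillation.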

| SMILES | Ki |
| --- | --- |
| CC(C)CC(=O)N[C@@H](C)C(=O)N1CCC[C@H]1C(=O)N[C@@H](CCC(=O)O)C(=O)N[C@@H](CCCCNC(=O)COCCOCCNC(=O)COCCOCCNC(=O)CC[C@H](NC(=O)CCCCCCCCCCCCCCCCC(=O)O)C(=O)O)C(=O)N[C@@H](C)C(=O)N[C@@H](CCC(=O)O)C(=O)N[C@@H](CCC(=O)O)C(=O)N[C@@H](CC(=O)O)C(=O)N[C@@H](C)C(=O)N[C@@H](CO)C(=O)N1CCC[C@H]1C(=O)N[C@@H](CCC(=O)O)C(=O)N[C@@H](CCC(=O)O)C(=O)N[C@@H](CC(C)C)C(=O)N[C@@H](CCC(N)=O)C(=O)N[C@@H](CCC(N)=O)C(=O)N[C@@H](Cc1ccc(O)cc1)C(=O)N[C@@H](Cc1ccc(O)cc1)C(=O)N[C@H](C(=O)N[C@@H](CO)C(=O)N[C@@H](CC(C)C)C(=O)N[C@@H](CCCNC(=N)N)C(=O)N[C@@H](Cc1c[nH]cn1)C(=O)N[C@@H](Cc1ccc(O)cc1)C(=O)N[C@@H](Cc1ccc(O)cc1)C(=O)N[C@@H](CC(N)=O)C(=O)N[C@@H](Cc1c[nH]c2ccccc12)C(=O)N[C@@H](CC(C)C)C(=O)N[C@H](C(=O)N[C@@H](CCCNC(=N)N)C(=O)N[C@@H](CCC(N)=O)C(=O)N[C@@H](CCCNC(=N)N)C(=O)N[C@@H](Cc1ccc(O)cc1)C(N)=O)[C@@H](C)O)C(C)C [Compound 144, N{alpha-4}-(3-methylbutanoyl)-N{epsilon-7}-[2-(2-{2-[2-(2-{2-[(4S)-4-carboxy-4-(17-carboxyheptadecanamido)butanamido]ethoxy}ethoxy)acetamido]ethoxy}ethoxy)acetamido]-[4A,7K,8A,9E,18Q,19Q,22V,28Y,30W,31L]hPYY (4-36)] (Isovaleryl-APEK([AEEA-AEEA-γGlu-C18 diacid])AEEDASPEELQQYYVSLRHYYNWLTRQRY-NH2) | 8.92 nM |
| CC[C@H](C)[C@H](NC(=O)[C@H](CCC(=O)O)NC(=O)[C@H](CCC(=O)O)NC(=O)[C@@H]1CCCN1C(=O)[C@H](CO)NC(=O)[C@H](CO)NC(=O)[C@H](CC(=O)O)NC(=O)[C@H](CCC(=O)O)NC(=O)[C@H](CCC(=O)O)NC(=O)[C@@H]1CCCN1C(=O)[C@H](CCCCNC(=O)COCCOCCNC(=O)COCCOCCNC(=O)CC[C@H](NC(=O)CCCCCCCCCCCCCCCCC(=O)O)C(=O)O)NC(=O)[C@H](CCC(=O)O)NC(=O)[C@@H]1CCCN1C(=O)[C@H](C)NC(=O)CC(C)C)C(=O)N[C@@H](CCC(N)=O)C(=O)N[C@@H](CCCNC(=N)N)C(=O)N[C@@H](Cc1ccc(O)cc1)C(=O)N[C@@H](Cc1ccc(O)cc1)C(=O)N[C@H](C(=O)N[C@@H](CO)C(=O)N[C@@H](CC(C)C)C(=O)N[C@@H](CCCNC(=N)N)C(=O)N[C@@H](Cc1c[nH]cn1)C(=O)N[C@@H](Cc1ccc(O)cc1)C(=O)N[C@@H](Cc1ccc(O)cc1)C(=O)N[C@@H](CC(N)=O)C(=O)N[C@@H](Cc1c[nH]c2ccccc12)C(=O)N[C@@H](CC(C)C)C(=O)N[C@H](C(=O)N[C@@H](CCCNC(=N)N)C(=O)N[C@@H](CCC(N)=O)C(=O)N[C@@H](CCCNC(=N)N)C(=O)N[C@@H](Cc1ccc(O)cc1)C(N)=O)[C@@H](C)O)C(C)C [Compound 145, N{alpha-4}-(3-methylbutanoyl)-N{epsilon-7}-[2-(2-{2-[2-(2-{2-[(4S)-4-carboxy-4-(17-carboxyheptadecanamido)butanamido]ethoxy}ethoxy)acetamido]ethoxy}ethoxy)acetamido]-[4A,7K,9E,12S,17I,18Q,22V,28Y,30W,31L]hPYY (4-36)] | 1.55 nM |

Continued, values first:

| Ki | SMILES |
| --- | --- |
| 1.42 nM | CC(C)CC(=O)N[C@@H](C)C(=O)N1CCC[C@H]1C(=O)N[C@@H](C)C(=O)N[C@@H](CCCCNC(=O)COCCOCCNC(=O)COCCOCCNC(=O)CC[C@H](NC(=O)CCCCCCCCCCCCCCCCC(=O)O)C(=O)O)C(=O)N1CCC[C@H]1C(=O)N[C@@H](CCC(=O)O)C(=O)N[C@@H](CCC(=O)O)C(=O)N[C@@H](CC(=O)O)C(=O)N[C@@H](C)C(=O)N[C@@H](CO)C(=O)N1CCC[C@H]1C(=O)N[C@@H](CCC(=O)O)C(=O)N[C@@H](CCC(=O)O)C(=O)N[C@@H](CC(C)C)C(=O)N[C@@H](CCC(N)=O)C(=O)N[C@@H](CCC(N)=O)C(=O)N[C@@H](Cc1ccc(O)cc1)C(=O)N[C@@H](Cc1ccc(O)cc1)C(=O)N[C@H](C(=O)N[C@@H](CO)C(=O)N[C@@H](CC(C)C)C(=O)N[C@@H](CCCNC(=N)N)C(=O)N[C@@H](Cc1c[nH]cn1)C(=O)N[C@@H](Cc1ccc(O)cc1)C(=O)N[C@@H](Cc1ccc(O)cc1)C(=O)N[C@@H](CC(N)=O)C(=O)N[C@@H](Cc1c[nH]c2ccccc12)C(=O)N[C@@H](CC(C)C)C(=O)N[C@H](C(=O)N[C@@H](CCCNC(=N)N)C(=O)N[C@@H](CCC(N)=O)C(=O)N[C@@H](CCCNC(=N)N)C(=O)N[C@@H](Cc1ccc(O)cc1)C(N)=O)[C@@H](C)O)C(C)C [Compound 138, N{alpha-4}-(3-methylbutanoyl)-N{epsilon-7}-[2-(2-{2-[2-(2-{2-[(4S)-4-carboxy-4-(17-carboxyheptadecanamido)butanamido]ethoxy}ethoxy)acetamido]ethoxy}ethoxy)acetamido]-[4A,6A,7K,9E,18Q,19Q,22V,28Y,30W,31L]hPYY (4-36)] |
| 3.12 nM | CC(C)CC(=O)N[C@@H](C)C(=O)N1CCC[C@H]1C(=O)N[C@@H](CCC(=O)O)C(=O)N[C@@H](CCCCNC(=O)COCCOCCNC(=O)COCCOCCNC(=O)CC[C@H](NC(=O)CCCCCCCCCCCCCCCCC(=O)O)C(=O)O)C(=O)N1CCC[C@H]1C(=O)N[C@@H](CCC(=O)O)C(=O)N[C@@H](CCC(=O)O)C(=O)N[C@@H](C)C(=O)N[C@@H](C)C(=O)N[C@@H](CO)C(=O)N1CCC[C@H]1C(=O)N[C@@H](CCC(=O)O)C(=O)N[C@@H](CCC(=O)O)C(=O)N[C@@H](CC(C)C)C(=O)N[C@@H](CCC(N)=O)C(=O)N[C@@H](CCCNC(=N)N)C(=O)N[C@@H](Cc1ccc(O)cc1)C(=O)N[C@@H](Cc1ccc(O)cc1)C(=O)N[C@H](C(=O)N[C@@H](CO)C(=O)N[C@@H](C)C(=O)N[C@@H](CCCNC(=N)N)C(=O)N[C@@H](Cc1c[nH]cn1)C(=O)N[C@@H](Cc1ccc(O)cc1)C(=O)N[C@@H](Cc1ccc(O)cc1)C(=O)N[C@@H](CC(N)=O)C(=O)N[C@@H](Cc1c[nH]c2ccccc12)C(=O)N[C@@H](CC(C)C)C(=O)N[C@H](C(=O)N[C@@H](CCCNC(=N)N)C(=O)N[C@@H](CCC(N)=O)C(=O)N[C@@H](CCCNC(=N)N)C(=O)N[C@@H](Cc1ccc(O)cc1)C(N)=O)[C@@H](C)O)C(C)C [Compound 141, N{alpha-4}-(3-methylbutanoyl)-N{epsilon-7}-[2-(2-{2-[2-(2-{2-[(4S)-4-carboxy-4-(17-carboxyheptadecanamido)butanamido]ethoxy}ethoxy)acetamido]ethoxy}ethoxy)acetamido]-[4A,7K,9E,11A,18Q,22V,24A,28Y,30W,31L]hPYY (4-36)] (Isovaleryl-APEK([AEEA-AEEA-γGlu-C18 diacid])PEEAASPEELQRYYVSARHYYNWLTRQRY-NH2) |
| 1.17 nM | CC(C)CC(=O)N[C@@H](C)C(=O)N1CCC[C@H]1C(=O)N[C@@H](CCC(=O)O)C(=O)N[C@@H](CCCCNC(=O)COCCOCCNC(=O)COCCOCCNC(=O)CC[C@H](NC(=O)CCCCCCCCCCCCCCCCC(=O)O)C(=O)O)C(=O)N1CCC[C@H]1C(=O)N1CCC[C@H]1C(=O)N[C@@H](CCC(=O)O)C(=O)N[C@@H](CCC(=O)O)C(=O)N[C@@H](C)C(=O)N[C@@H](CO)C(=O)N1CCC[C@H]1C(=O)N[C@@H](CCC(=O)O)C(=O)N[C@@H](CCC(=O)O)C(=O)N[C@@H](CC(C)C)C(=O)N[C@@H](CCC(N)=O)C(=O)N[C@@H](CCCNC(=N)N)C(=O)N[C@@H](Cc1ccc(O)cc1)C(=O)N[C@@H](Cc1ccc(O)cc1)C(=O)N[C@H](C(=O)N[C@@H](CO)C(=O)N[C@@H](CC(C)C)C(=O)N[C@@H](CCCNC(=N)N)C(=O)N[C@@H](Cc1c[nH]cn1)C(=O)N[C@@H](Cc1ccc(O)cc1)C(=O)N[C@@H](Cc1ccc(O)cc1)C(=O)N[C@@H](CC(N)=O)C(=O)N[C@@H](Cc1c[nH]c2ccccc12)C(=O)N[C@@H](CC(C)C)C(=O)N[C@H](C(=O)N[C@@H](CCCNC(=N)N)C(=O)N[C@@H](CCC(N)=O)C(=O)N[C@@H](CCCNC(=N)N)C(=O)N[C@@H](Cc1ccc(O)cc1)C(N)=O)[C@@H](C)O)C(C)C [Compound 142, N{alpha-4}-(3-methylbutanoyl)-N{epsilon-7}-[2-(2-{2-[2-(2-{2-[(4S)-4-carboxy-4-(17-carboxyheptadecanamido)butanamido]ethoxy}ethoxy)acetamido]ethoxy}ethoxy)acetamido]-[4A,7K,9P,11E,18Q,22V,28Y,30W,31L]hPYY (4-36)] |

From US12559529B2, “NPY2 receptor agonists” (Boehringer Ingelheim International GmbH, priority 2019, dated 2026)
